Reference: patent US8557331B2, “Antifouling method and composition using chromen-4-one derivatives” (The Hong Kong University of Science and Technology, priority 2008, dated 2013)
In brackets after ≈: the same amount, converted by molar mass.

Key:
[1] = test system: larval settlement of the barnacle Balanus amphitrite; assay: Bioassay for antifouling activity against larval settlement (cyprids, 24-well plate, 24 h)
Method: (§1) The larvae were reared in freshly filtered natural seawater (FSW, 0.45 μm, 32S salinity) and fed with Chaetoceros gracilis Schutt at 24° C. in the Coastal Marine Laboratory, the Hong Kong University of Science and Technology (HKUST). Larvae that were competent to settle (called cyprids) were stored for 2 days at 8° C. prior to being used in the bioassays. Ten μl of each test sample dissolved in dimethyl sulfoxide (DMSO) were transferred into a well in 24-well polystyrene plate after the addition of 1 ml of FSW. The control wells contained 1 ml of FSW and 10 μl of DMSO. About 15 cyprids were added in each well with triplicate samples being tested.
as §1, with “freshly filtered nature seawater (FSW,” for “freshly filtered natural seawater (FSW,”, “Technology (HKUST). Cyprids (competent larvae) were stored” for “Technology (HKUST). Larvae that were competent to settle (called cyprids) were stored”, “8° C. (aged cyprids) prior to” for “8° C. prior to”

[2] = test system: barnacle Balanus amphitrite; assay: Field experiment: resin-based paint on PVC panels submerged at pier; format: in vivo
Method: Test compounds (genistein, Cu2O, or their mixture) were mixed with resin-based paint (Permoglaze, Akzo Nobel Decorative Coatings, Lancashire, UK) with addition of 15% of (w/w) xylene, and then sprayed on the surface of PVC panels (size: 10 cm×10 cm×0.5 cm). Genistein was incorporated into paint by 10 and 20% of the dry weight as the low and high concentrations, respectively. In the experiments of combination effects, both Cu2O and genistein at 10% of dry weight were added. The controls used was a resin based paint with addition of 15% (w/w) of xylene only. Each of the tested paints was mixed for more than 8 h before being spread onto panels. The thickness of each paint film was between 100 and 150 μm. The painted panels were air-dried completely prior to being tied to PVC frames and deployed vertically at a depth of 1-1.5 m at the pier of HKUST from March to June in 2007. The numbers of adult barnacle B. amphitrite on the surface were counted and the density on each panel was calculated after their submergences. Four replicates were tested for each sample.

[3] = Bioassay for antifouling activity against larval settlement (cyprids, 24-well plate, 24 h); conditions: Balanus amphitrite (barnacle, cyprid larvae), in vivo
Method: as §1
as §1, with “freshly filtered nature seawater (FSW,” for “freshly filtered natural seawater (FSW,”, “Technology (HKUST). Cyprids (competent larvae) were stored” for “Technology (HKUST). Larvae that were competent to settle (called cyprids) were stored”, “8° C. (aged cyprids) prior to” for “8° C. prior to”

[4] = Hydrolysis experiment of genistein (ASTM E895-89, HPLC); format: physicochemical; conditions: 50° C. in dark, a week
Method: The experiments were carried out according to the method described in ASTM (1993). Buffer solutions consisting of 20 mM of sodium acetate were prepared with adjusted pH level at 5, 7, and 9. FSW was the same as those used in bioassays. Artificial seawater (ASW) was prepared as van't Hoff formula (460 mM NaCl, 10.1 mM KCl, 9.2 mM CaCl2, 35.9 mM MgCl2, 17.5 mM MgSO4, 10 mM Tris-HCl, and pH 8.2). Test solution (900 ml) containing 4 μg genistein was divided into nine test glass tubes (100 ml each), and then the tubes were tightly capped. Immediately after preparation of the test solutions, three tubes were loaded onto a Sep-Pak tC18 ENV column (Waters, USA), preconditioned for use by eluting it with methanol and water under reduced pressure. The column after loading the test sample was eluted with water to remove any salts in the test samples, and was then eluted with 2.5 ml of DMSO. Thus, the eluate was 40 times more concentrated than the sample in the original test solution; this concentrated solution was subjected to HPLC analysis. The HPLC system (600, Waters, USA) was equipped with a photodiode array detector (996, Waters, USA) installed in tandem after outlet of the column (Phenomenex Luna 5λ C18 100A, 250×4.60 mm, 5 micron). The solvents used were (A) 5% acetonitrile and (B) 95% acetonitrile at the isocratic flow rates of (A) 0.53 ml min^−1 and (B) 0.47 ml min^−1 at 40° C., respectively. A volume of ten μl of elute was injected into the column using an autosampler (717plus, Waters, USA). The UV absorption at 1=260 nm was used for quantification. The analytical data were shown as the average value of triplicate analyses. The remaining six tubes were kept at 50° C. in the dark in an incubator for a period of four or seven days according to ASTM Procedure E895-89 (ASTM, 1993). After the incubations, each of three test samples was subjected to HPLC analysis, following the same concentration process as described above to determine the remaining concentration of genistein.

[5] = Amphibalanus amphitrite, Table 2, larval settlement
[6] = Amphibalanus amphitrite, Table 2, larval settlement of Balanus amphitrite, mean ± standard deviation of at least three replicates
[7] = Table 2, LC50 used is the highest concentration causing <50% death of larvae
[8] = judged from LC50/EC50, standard of Avelin et al. (1993): nontoxic if higher than 10
[9] = single compound at 10% of dry weight of paint, three months submergence

Compound	EC50 [1, 5]	EC50 [1, 6]	LC50/EC50 [1, 7]	toxicity (in words) ([1]; in vivo)	also measured
COc1c(OC)c(O)c2c(=O)c(OC)c(-c3ccc(O)cc3)oc2c1OC [Sample F-1, 4′,5-dihydroxy-3,6,7,8 tetramethoxy-flavone]	~3 µg/mL (≈ 8.01 µM)	3.4 ± 0.5 µg/mL (≈ 9.08 µM)	>14.7	almost no toxicity	–
COc1ccc(-c2coc3c(OC)c(O)ccc3c2=O)cc1 [Sample F-2, 7-hydroxy-8,4′-dimethoxyisoflavone]	–	13.3 ± 2.5 µg/mL (≈ 44.6 µM)	>7.50	–	–
COc1ccc(-c2oc3cc(OC)c(OC)c(O)c3c(=O)c2OC)cc1O [Sample F-3]	~3 µg/mL (≈ 8.01 µM)	3 ± 0.4 µg/mL (≈ 8.01 µM)	>16.7	almost no toxicity	–
COc1cc2oc(-c3ccc(O)cc3)c(OC)c(=O)c2c(O)c1OC [Sample F-4, 4′,5,-dihydroxy-3,6,7-trimethoxy-flavone]	~3 µg/mL (≈ 8.71 µM)	2.5 ± 0.3 µg/mL (≈ 7.26 µM)	>20.0	almost no toxicity	–
C[C@@H]1O[C@@H](OC[C@H]2O[C@@H](Oc3c(-c4ccc(O)c(O)c4)oc4cc(O)cc(O)c4c3=O)[C@H](O)[C@@H](O)[C@@H]2O)[C@H](O)[C@H](O)[C@H]1O [Sample F-5, neoisorutin]	–	–	>5.0	–	EC50 ([1]; Table 2, larval settlement of Balanus amphitrite, mean ± standard deviation of at least three replicates): 40.1 ± 3.4 µg/mL (≈ 65.7 µM)
O=c1c(O)c(-c2ccc(O)cc2)oc2cc(O)cc(O)c12 [Sample F-6, kaempferol]	–	9.6 ± 1.4 µg/mL (≈ 33.5 µM)	>5.2	–	–
COc1ccc(-c2oc3cc(OC)cc(O)c3c(=O)c2O)cc1 [Sample F-8, 3,5-dihydroxy-7,4′-dimethoxyflavone]	–	11.8 ± 2.1 µg/mL (≈ 37.5 µM)	>4.2	–	–
O=c1cc(-c2ccc(O)cc2)oc2cc(O)cc(O)c12 [Sample F-9, 4′,5,7-trihydroxy-flavone]	~3 µg/mL (≈ 11.1 µM)	3.1 ± 0.3 µg/mL (≈ 11.5 µM)	>16.1	–	toxicity (in words) [1, 8]: almost no toxicity
O=c1cc(-c2ccc(O)c(O)c2)oc2cc(O)cc(O)c12 [Sample F-10]	~3 µg/mL (≈ 10.5 µM)	3.8 ± 0.4 µg/mL (≈ 13.3 µM)	–	almost no toxicity	LC50/EC50 ([1]; Balanus amphitrite, in vivo, 24 h): >13.2
O=c1c(-c2ccc(O)cc2)coc2cc(O)cc(O)c12 [Sample F-12, 4′,5,7-trihydroxy-isoflavone]	3 µg/mL (≈ 11.1 µM)	3 ± 0.3 µg/mL (≈ 11.1 µM)	>16.7	–	density of barnacles fouled on the test panels ([2]; 10% of dry weight of paint, one month submergence, control 0.32 ± 0.039): 0.12 ± 0.031 adults cm^−2; density of barnacles fouled on the test panels ([2]; 10% of dry weight of paint, two months submergence, control 0.71 ± 0.053): 0.57 ± 0.055 adults cm^−2; density of barnacles fouled on the test panels ([2]; 20% of dry weight of paint, one month submergence, control 0.32 ± 0.039): 0.08 ± 0.027 adults cm^−2; density of barnacles fouled on the test panels ([2]; 20% of dry weight of paint, two months submergence, control 0.71 ± 0.053): 0.13 ± 0.029 adults cm^−2; density of barnacles fouled on the test panels [2, 9]: 0.77 ± 0.042 adults cm^−2; LC50 at 24 h [3]: > 50 µg/mL; EC50 ([1]; 24 h, genistein from Streptomyces fungicidicus, larval settlement, 24 h at 24° C., method of Rittschof et al. (1994)): 3 µg/mL (≈ 11.1 µM); concentration at which inhibitory activity against larvae settlement was observed (as low as) ([1]; FIG. 2): 0.5 µg/mL; LC50/EC50 ([1]; Table 2, genistein purified from extract of Genista tinctoria): > 16.7; larvae settled ([1]; concentration of 8 μg/ml, control 90% settlement): 10%; LC50/EC50 ([1]; genistein from Streptomyces fungicidicus): > 16.7; toxicity (in words) [1, 8]: nontoxic; genistein decomposed ([4]; artificial seawater (ASW)): ~35%; genistein decomposed ([4]; filtered natural seawater (FSW)): ~26%; genistein decomposed ([4]; pH 5.0 buffer solution): About 27%; genistein decomposed ([4]; pH 7.0 buffer solution): ~31%; genistein decomposed ([4]; pH 9.0 buffer solution): ~37%
COc1ccc(-c2oc3c(CC=C(C)C)c(O[C@@H]4O[C@H](CO)[C@@H](O)[C@H](O)[C@H]4O)cc(O)c3c(=O)c2O[C@@H]2O[C@@H](C)[C@H](O)[C@@H](O)[C@H]2O)cc1 [Sample F-16, icariin]	–	35.3 ± 4.2 µg/mL (≈ 52.2 µM)	>2.8	–	–
O=c1cc(-c2ccccc2)oc2cccc(O)c12 [Sample F-17, 5-monohydroxy-flavone]	~3 µg/mL (≈ 12.6 µM)	2.8 ± 0.3 µg/mL (≈ 11.8 µM)	>17.9	–	toxicity (in words) [1, 8]: almost no toxicity
Cu2O [reference compound]	–	–	–	–	density of barnacles fouled on the test panels [2, 9]: 0.81 ± 0.06 adults cm^−2
